{
  "source": "patent US10173968B2",
  "about": "“Bishydrazone-based antifungal agents” (University of Kentucky Research Foundation, priority 2016, dated 2019)",
  "key": {"A. baumannii ATCC 19606": {"test_system": "A. baumannii ATCC 19606", "experiment": "Antibacterial MIC, double-dilution method", "type": "cell-based", "details": "Acinetobacter baumannii, ATCC19606, strain E, Gram-negative, read-out: MIC", "summary_of_the_method": "(§1)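 Compounds were first screened at 500 μM each, then MICs were read by serial twofold dilution of the compound against the bacterial strain.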"}, "B. subtilis 168": {"test_system": "B. subtilis 168", "experiment": "Antibacterial MIC, double-dilution method", "type": "cell-based", "details": "Bacillus subtilis, strain A, Gram-positive", "summary_of_the_method": "as §1"}, "E. cloacae ATCC 13047": {"test_system": "E. cloacae ATCC 13047", "experiment": "Antibacterial MIC, double-dilution method", "type": "cell-based", "details": "Enterobacter cloacae, ATCC13047, strain F, Gram-negative, read-out: MIC", "summary_of_the_method": "as §1"}, "E. coli MC1061": {"test_system": "E. coli MC1061", "experiment": "Antibacterial MIC, double-dilution method", "type": "cell-based", "details": "Escherichia coli, strain G, Gram-negative, read-out: MIC", "summary_of_the_method": "as §1"}, "K. pneumoniae ATCC 27736": {"test_system": "K. pneumoniae ATCC 27736", "experiment": "Antibacterial MIC, double-dilution method", "type": "cell-based", "details": "Klebsiella pneumoniae, ATCC27736, strain H, Gram-negative, read-out: MIC", "summary_of_the_method": "as §1"}, "[1]": {"test_system": "L. monocytogenes ATCC 19115", "experiment": "Antibacterial MIC, double-dilution method", "type": "cell-based", "details": "Listeria monocytogenes, ATCC19115, strain B, Gram-positive, read-out: MIC", "summary_of_the_method": "as §1"}, "MRSA": {"test_system": "MRSA", "experiment": "Antibacterial MIC, double-dilution method", "type": "cell-based", "details": "Staphylococcus aureus, strain C, Gram-positive, read-out: MIC", "summary_of_the_method": "as §1"}, "P. aeruginosa ATCC 27853": {"test_system": "P. aeruginosa ATCC 27853", "experiment": "Antibacterial MIC, double-dilution method", "type": "cell-based", "details": "Pseudomonas aeruginosa, ATCC27853, strain I, Gram-negative, read-out: MIC", "summary_of_the_method": "as §1"}, "S. enterica ATCC 14028": {"test_system": "S. enterica ATCC 14028", "experiment": "Antibacterial MIC, double-dilution method", "type": "cell-based", "details": "Salmonella enterica, ATCC14028, strain J, Gram-negative, read-out: MIC", "summary_of_the_method": "as §1"}, "VRE": {"test_system": "VRE", "experiment": "Antibacterial MIC, double-dilution method", "type": "cell-based", "details": "Enterococcus, strain D, Gram-positive, read-out: MIC", "summary_of_the_method": "as §1"}, "C. albicans ATCC 1003": {"test_system": "C. albicans ATCC 1003", "experiment": "Antifungal MIC, CLSI M27-A3 microbroth dilution", "type": "cell-based, Candida albicans", "details": "Candida albicans, ATCC1003, read-out: MIC", "method": "(§2) In vitro MIC testing was performed according to the CLSI M27-A3 standard microbroth dilution methodology for the susceptibility testing of yeasts with minor modifications."}, "C. albicans ATCC 10231": {"test_system": "C. albicans ATCC 10231", "experiment": "Antifungal MIC, CLSI M27-A3 microbroth dilution", "type": "cell-based, Candida albicans", "details": "Candida albicans, ATCC10231, C. albicans ATCC 10231, resistant to FLC, ITC, and VOR, read-out: MIC", "method": "as §2"}, "C. albicans ATCC 1237": {"test_system": "C. albicans ATCC 1237", "experiment": "Antifungal MIC, CLSI M27-A3 microbroth dilution", "type": "cell-based, Candida albicans", "details": "Candida albicans, ATCC1237, C. albicans ATCC 1237, resistant to FLC, ITC, and VOR, read-out: MIC", "method": "as §2"}, "C. albicans ATCC 2310": {"test_system": "C. albicans ATCC 2310", "experiment": "Antifungal MIC, CLSI M27-A3 microbroth dilution", "type": "cell-based, Candida albicans", "details": "Candida albicans, ATCC2310, C. albicans ATCC 2310, susceptible to FLC, ITC, and VOR, read-out: MIC", "method": "as §2"}, "C. albicans ATCC 2876": {"test_system": "C. albicans ATCC 2876", "experiment": "Antifungal MIC, CLSI M27-A3 microbroth dilution", "type": "cell-based, Candida albicans", "details": "Candida albicans, ATCC2876, C. albicans ATCC 2876, susceptible to FLC, ITC, and VOR, read-out: MIC", "method": "as §2"}, "C. albicans ATCC 64124": {"test_system": "C. albicans ATCC 64124", "experiment": "Antifungal MIC, CLSI M27-A3 microbroth dilution", "type": "cell-based, Candida albicans", "details": "Candida albicans, ATCC64124, C. albicans ATCC 64124, resistant to FLC, ITC, and VOR, read-out: MIC", "method": "as §2"}, "C. albicans ATCC 90819": {"test_system": "C. albicans ATCC 90819", "experiment": "Antifungal MIC, CLSI M27-A3 microbroth dilution", "type": "cell-based, Candida albicans", "details": "Candida albicans, ATCC90819, C. albicans ATCC 90819, resistant to FLC, ITC, and VOR, read-out: MIC", "method": "as §2"}, "[2]": {"experiment": "Mammalian cell cytotoxicity, resazurin", "type": "cell-based", "details": "human", "method": "Another important aspect to consider during the development of antimicrobial agents is their potential toxicity towards mammalian cells. Having established the potent antimicrobial activities of the bis(N-amidino)hydrazones and N-amidino-N′-aryl-bishydrazones against bacteria and fungi, the toxicity profile of these compounds was determined against two mammalian cell lines (A549 and BEAS-2B; FIGS. 4A-B). […]. Cytotoxicity assays were performed as previously described. The human lung carcinoma epithelial cells A549 and the normal human bronchial epithelial cells BEAS-2B were grown in F12-K and DMEM medium containing 10% fetal bovine serum (FBS) and 1% antibiotics, respectively. The confluent cells were trypsinized with 0.05%-trypsin-0.53 mM EDTA, centrifuged (1,200 rpm) and resuspended in fresh medium (F12-K or DMEM). The cells were seeded into 96-well microtiter plates at a density of 3,000 cells/well and were grown overnight. […] Triton X-100® (0.5%, v/v) gave complete loss of cell viability and was used as the positive control. The percent cell survival was calculated as: (test value/control value)×100, where control value represents cells+resazurin−drug, and test value represents cells+resazurin+drug."}, "[3]": {"test_system": "C. albicans strains (panel of seven)", "experiment": "Antifungal MIC, summary over the panel", "type": "cell-based, Candida albicans", "details": "against all fungal strains tested", "summary_of_the_method": "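Performed by CLSI M27-A3 broth microdilution for yeast susceptibility, with minor modifications. MIC was read visually as the lowest concentration giving complete growth inhibition relative to the growth control.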"}},
  "note": "Like-named read-outs stand apart in the source and are kept apart here.",
  "data": [
    {"smiles": "Cl.N=C(N)N/N=C/c1ccc(-c2ccc(/C=N/Nc3ccc(F)cc3F)cc2)cc1", "note": "[Compound 7Af, (E)-2-((4′-((E)-(2-(2,4-Difluorophenyl)hydrazono)methyl)-[1,1′-biphenyl]-4-yl)methylene) hydrazine-1-carboximidamide, monohydrochloride]", "values": [
      {"measurement": "MIC", "setting": "A. baumannii ATCC 19606; converted from μM", "result": "> 214", "unit": "µg/mL"},
      {"measurement": "MIC", "setting": "A. baumannii ATCC 19606; range 0.5 to 500 μM", "result": "> 500", "unit": "µM"},
      {"measurement": "MIC", "setting": "B. subtilis 168; converted from μM", "result": "> 214", "unit": "µg/mL"},
      {"measurement": "MIC", "setting": "B. subtilis 168; range 0.5 to 500 μM", "result": "> 500", "unit": "µM"},
      {"measurement": "MIC", "setting": "E. cloacae ATCC 13047; converted from μM", "result": "> 214", "unit": "µg/mL"},
      {"measurement": "MIC", "setting": "E. cloacae ATCC 13047; range 0.5 to 500 μM", "result": "> 500", "unit": "µM"},
      {"measurement": "MIC", "setting": "E. coli MC1061; converted from μM", "result": "> 214", "unit": "µg/mL"},
      {"measurement": "MIC", "setting": "E. coli MC1061; range 0.5 to 500 μM", "result": "> 500", "unit": "µM"},
      {"measurement": "MIC", "setting": "K. pneumoniae ATCC 27736; converted from μM", "result": "> 214", "unit": "µg/mL"},
      {"measurement": "MIC", "setting": "K. pneumoniae ATCC 27736; range 0.5 to 500 μM", "result": "> 500", "unit": "µM"},
      {"measurement": "MIC", "setting": "[1]; converted from μM", "result": "0.9 to 1.7", "unit": "µg/mL"},
      {"measurement": "MIC", "setting": "[1]; range 0.5 to 500 μM", "result": "2 to 3.9", "unit": "µM"},
      {"measurement": "MIC", "setting": "MRSA; converted from μM", "result": 1.7, "unit": "µg/mL"},
      {"measurement": "MIC", "setting": "MRSA; range 0.5 to 500 μM", "result": 3.9, "unit": "µM"},
      {"measurement": "MIC", "setting": "P. aeruginosa ATCC 27853; converted from μM", "result": "> 214", "unit": "µg/mL"},
      {"measurement": "MIC", "setting": "P. aeruginosa ATCC 27853; range 0.5 to 500 μM", "result": "> 500", "unit": "µM"},
      {"measurement": "MIC", "setting": "S. enterica ATCC 14028; converted from μM", "result": "> 214", "unit": "µg/mL"},
      {"measurement": "MIC", "setting": "S. enterica ATCC 14028; range 0.5 to 500 μM", "result": "> 500", "unit": "µM"},
      {"measurement": "MIC", "setting": "VRE; converted from μM", "result": 1.7, "unit": "µg/mL"},
      {"measurement": "MIC", "setting": "VRE; range 0.5 to 500 μM", "result": 3.9, "unit": "µM"},
      {"measurement": "MIC", "setting": "C. albicans ATCC 1003; C. albicans ATCC 1003, converted from μg/mL", "result": 4.5, "unit": "µM"},
      {"measurement": "MIC", "setting": "C. albicans ATCC 1003", "result": 2, "unit": "µg/mL"},
      {"measurement": "MIC", "setting": "C. albicans ATCC 10231; converted from μg/mL", "result": 2.3, "unit": "µM"},
      {"measurement": "MIC", "setting": "C. albicans ATCC 10231", "result": 1, "unit": "µg/mL"},
      {"measurement": "MIC", "setting": "C. albicans ATCC 1237; converted from μg/mL", "result": 9.1, "unit": "µM"},
      {"measurement": "MIC", "setting": "C. albicans ATCC 1237", "result": 3.9, "unit": "µg/mL"},
      {"measurement": "MIC", "setting": "C. albicans ATCC 2310; converted from μg/mL", "result": 9.1, "unit": "µM"},
      {"measurement": "MIC", "setting": "C. albicans ATCC 2310", "result": 3.9, "unit": "µg/mL"},
      {"measurement": "MIC", "setting": "C. albicans ATCC 2876; converted from μg/mL", "result": 9.1, "unit": "µM"},
      {"measurement": "MIC", "setting": "C. albicans ATCC 2876", "result": 3.9, "unit": "µg/mL"},
      {"measurement": "MIC", "setting": "C. albicans ATCC 64124; converted from μg/mL", "result": 9.1, "unit": "µM"},
      {"measurement": "MIC", "setting": "C. albicans ATCC 64124", "result": 3.9, "unit": "µg/mL"},
      {"measurement": "MIC", "setting": "C. albicans ATCC 90819; converted from μg/mL", "result": 18.2, "unit": "µM"},
      {"measurement": "MIC", "setting": "C. albicans ATCC 90819", "result": 7.8, "unit": "µg/mL"},
      {"measurement": "IC50 at 24 h", "setting": "[2]; A549 lung carcinoma epithelial cells, A549, 24 h", "result": "7.8 to 15.6", "unit": "µg/mL"},
      {"measurement": "IC50 at 24 h", "setting": "[2]; BEAS-2B normal bronchial epithelial cells", "result": "7.8 to 15.6", "unit": "µg/mL"},
      {"measurement": "antifungal activity in words", "setting": "[3]", "result": "excellent antifungal activities"}
    ]}
  ]
}
